According to US20230355596A1, “COMPOSITIONS AND METHODS OF USING NMDAR INHIBITORS AND KINASE INHIBITORS TO TREAT LIVER CANCER” (The University of Hong Kong, priority 2022, published 2023):
Where two headings read alike, the source gives them in different places.

Key:
MHCC97L cells = experiment: MTT cell viability assay and drug interaction analysis; assay type: cell-based, human; conditions: single drug
NMDAR subunits = conditions: cited from earlier work
[1] = test system: MHCC97L-derived and patient-derived xenografts; experiment: Western blot and immunohistochemistry of resected xenografts; assay type: in vivo, mouse; conditions: HCC patient-derived xenograft PDX1
Experimental: 5×10^5 MHCC97L cells, 3.5×10^5 cells (for PDX1) and 1×10^5 cells (for PDX2) dissociated from HCC patient derived xenograft (PDX), were injected subcutaneously into the left flank of 4 to 5-week-old male BALB/c nude mice and NOD/SCID mice, respectively. 1×10^4 RIL-175 cells were injected into the right median lobe of the livers from 9 to 12-week-old male C57BL/6N mice. Size of subcutaneously xenografted tumors was measured by an external caliper and tumor volume was estimated by the equation: Volume=½ (Length×Width^2), where the length and width represent the largest and smallest diameters, respectively. Drug administration began when the subcutaneous tumor reached ˜0.05 cm3 in size or at day 5 post-injection (for RIL-175 cells), at which point mice were divided into four groups randomly for daily treatment with DMSO, ifenprodil (20 mg/kg/day, intraperitoneally), sorafenib (28 mg/kg/day, orally), or the combination. […] Tumor volume and body weight of each mouse were then measured every two days. […] The mice were checked every two days, and tumor incidence and latency were recorded. […]
Cells or homogenized tissues collected from xenografts were lysed by 2X RIPA lysis buffer supplemented with protease inhibitor cocktail (ProBlock™ Gold Mammalian, Goldbio), PhosSTOP (Roche), 1 mM Na3VO4, and 1 mM NaF. […] Supernatants were quantified using the Bradford assay (BioRad). […]

[2] = test system: patient-derived xenografts; experiment: Limiting dilution and serial transplantation into secondary mouse recipients; assay type: in vivo
Experimental: 5×10^5 MHCC97L cells, 3.5×10^5 cells (for PDX1) and 1×10^5 cells (for PDX2) dissociated from HCC patient derived xenograft (PDX), were injected subcutaneously into the left flank of 4 to 5-week-old male BALB/c nude mice and NOD/SCID mice, respectively. 1×10^4 RIL-175 cells were injected into the right median lobe of the livers from 9 to 12-week-old male C57BL/6N mice. Size of subcutaneously xenografted tumors was measured by an external caliper and tumor volume was estimated by the equation: Volume=½ (Length×Width^2), where the length and width represent the largest and smallest diameters, respectively. Drug administration began when the subcutaneous tumor reached ˜0.05 cm3 in size or at day 5 post-injection (for RIL-175 cells), at which point mice were divided into four groups randomly for daily treatment with DMSO, ifenprodil (20 mg/kg/day, intraperitoneally), sorafenib (28 mg/kg/day, orally), or the combination. Ifenprodil and sorafenib were purchased from Selleckchem (#54091) and LC laboratories (#S-8502), respectively. The drug treatment was started after grouping, and lasted for 21 days. Tumor volume and body weight of each mouse were then measured every two days. The estimated tumor volume served as a guide for determining the day when the mice were sacrificed to take actual measurements on the resected tumors. The mice were sacrificed, and the tumor tissues were collected at the end of treatment. Part of the tumor tissues was snap-frozen in liquid nitrogen for protein extraction and immunoblot analysis. Part of the tissues was fixed in 4% paraformaldehyde (PFA) at room temperature for histological staining. The remaining tissues were dissociated into single cells for the limiting dilution spheroid formation assay. To evaluate the tumor-initiating and self-renewal abilities of the drug-treated tumors derived from MHCC97L cells and PDX1 in vivo, limiting dilution and serial transplantation assays were performed. 500, 1,000, 5,000, 10,000, 50,000 cells dissociated from the residual tumor tissues were injected subcutaneously into either flank of 4-5 week-old mice. No drug treatment was further applied. The mice were checked every two days, and tumor incidence and latency were recorded. To evaluate HCC metastases, 4×10^4 RIL-175 cells were injected through tail vein into 6- to 8-week-old male nude mice. Drug administration began at day 5 post-injection, and daily treatment with DMSO, ifenprodil (20 mg/kg/day, intraperitoneally), sorafenib (28 mg/kg/day, orally), or the combination was applied for 10 days before resection of lung tumors. At five and twelve days after the tail-vein injection, the mice were administered 100 mg/kg D-luciferin via peritoneal injection for bioluminescent imaging (using the PE IVIS Spectrum in vivo imaging system) to monitor the lung metastasis.
To determine the efficacy of the drug combination of IFEN and SOR in vivo, MHCC97L cell- and HCC patient-derived xenografts were implanted into mice. […] Briefly, HCC patient-derived xenograft was subcutaneously injected in NOD/SCID mice and treated with 20 mg/kg ifenprodil, 28 mg/kg sorafenib, or combination of ifenprodil and sorafenib, for 21 days. Protein lysates were collected from the resected tumors and analyzed by Western blot. […] Spheroid formation assay was performed on cells being harvested from the same residual xenografts to evaluate their self-renewal ability. […] Combined treatment of ifenprodil and sorafenib decreased the repropagation capability of HCC cells in vivo. Residual tumor cells were harvested from the drug(s)-treated patient-derived xenografts and 50,000, 10,000, 5,000, 1,000, and 500 cells were transplanted into secondary NOD/SCID mouse recipients (n=6 per group). Average tumor latency and incidence were recorded, and tumor-initiating cell frequency was calculated.

HCC patients [3] = conditions: phase III, first line; cited from earlier work
HCC patients [4] = conditions: cited from earlier work
HCC patients [5] = conditions: Asian study; cited from earlier work
[6] = 50,000 cells transplanted, n=6 per group
[7] = 50,000 cells transplanted, secondary NOD/SCID recipients

Row | SMILES | tumor vasculature (CD31-positive vessels) [1] | Average tumor latency ([2]; 500 cells transplanted) [days] | Tumor incidence ([2]; 500 cells transplanted) | Average tumor latency ([2]; 1,000 cells transplanted) [days] | Tumor incidence ([2]; 1,000 cells transplanted) | Average tumor latency ([2]; 5,000 cells transplanted) [days] | Tumor incidence ([2]; 5,000 cells transplanted) | Average tumor latency ([2]; 10,000 cells transplanted) [days] | Tumor incidence ([2]; 10,000 cells transplanted) | Tumor incidence [2, 6] | Average tumor latency [2, 7] [days] | other results
1 | CC(C(O)c1ccc(O)cc1)N1CCC(Cc2ccccc2)CC1 (centres unmarked) [Ifenprodil, ifenprodil] | inhibited tumor vasculature | 33 | 4/6 | 28.33 | 6/6 | 31.33 | 6/6 | 21 | 6/6 | 6/6 | 24 | HCC growth, NMDAR inhibitor alone (MHCC97L cells): did not significantly suppress; NMDAR subunit selectivity (NMDAR subunits): more selective for NMDAR1/NMDAR2B subunits; toxicity / safety as therapeutic agent (NMDAR subunits): tested safe in human; toxicity / safety as therapeutic agent (NMDAR subunits; listed as IFEN): known safety history
2 | CNC(=O)c1cc(Oc2ccc(NC(=O)Nc3ccc(Cl)c(C(F)(F)F)c3)cc2)ccn1 [Sorafenib, sorafenib] | inhibited tumor vasculature | 34 | 3/6 | 29 | 6/6 | 21.67 | 6/6 | 21.33 | 6/6 | 6/6 | 22.33 | Median survival (HCC patients [3]): 9.9 months; discontinuation rate (HCC patients [3]): 33%; median overall survival (HCC patients [4]; SHARP trial): 10.7 months; tolerability (HCC patients [4]; phase III trials): generally well tolerated; median overall survival (HCC patients [5]): 6.5 months; cancer stemness in the HCC mouse models after treatment ([2]; HCC mouse models): increased cancer stemness
